Assay results as given in ChEMBL document CHEMBL3507680, “University of Dundee, Gates Library screen for HepG2 cell viability”.

Assay: Human HepG2 cell viability assay in 384 well format
Assay type: toxicity, cell-based
Design: dose 125 nL, time 70.5 hour; cytotoxicity at 70.5 h: concentration not given beside the values
Details: HepG2 cells, read-out: Inhibition

SMILES | cytotoxicity at 70.5 h [%]
Cc1ncsc1C(=O)NCCNc1cnccn1 | -3.47
CC(C)(C)c1ncc(C(=O)NCCn2ccnc2)s1 | 24.5
Cc1nc(C(C)(C)C)sc1C(=O)NCCn1cccn1 | -0.966
CC(C)CCNC(=O)c1ccc(Cl)c(NS(C)(=O)=O)c1 | -4.83
CCN1CCN(c2ccc(C(=O)NC(C)C(=O)N(C)C)cc2)CC1 (stereo not given) | -4.6
CC(C)CS(=O)(=O)CC(=O)NC(C)(C)c1cccc(F)c1 | 6.38
Cc1cccc(C(C)(C)NC(=O)CS(=O)(=O)CC(C)C)c1 | -4.98
Cc1nn(C)c(C)c1NC(=O)CNc1ccc(F)c(C(F)(F)F)c1 | -2.51
CS(=O)(=O)CCN1CCC(=Cc2ccccc2)CC1 | -3.57
CC(NC(=O)c1cccs1)C(=O)NS(=O)(=O)c1cccc(C#N)c1 (stereo not given) | 2.5
CC(NC(=O)c1cccs1)C(=O)NS(=O)(=O)Cc1ccc(C#N)cc1 (stereo not given) | 4.04
Cc1ccccc1C1(CN)CCCCC1 | 10.6
Cc1ccccc1C1(CN)CCOCC1 | -6.58
Cc1nn(C)c(C)c1CCC(=O)N1CCc2sccc2C1 | 23.2
CN(C)C(=O)c1cccc(C[S+]([O-])CC(=O)NC2CCCC2)c1 (stereo not given) | 5.53
Cn1ccc(C(=O)N(CC(F)(F)F)c2cccc(Cl)c2)cc1=O | 11.6
O=C(C1COc2ccccc2C1)N(CCO)Cc1ccccc1 (stereo not given) | -1.94
Cc1nn(C)c(C)c1CCC(=O)NCc1cccnc1OC1CCCC1 | -3.92
Cc1nc(C)c(CC(=O)NCc2cccnc2OC2CCCC2)c(=O)[nH]1 | -4.62
CCC(C)(C)NC(=O)CN(Cc1cccc(O)c1)C1CCC(O)CC1 (stereo not given) | -4.94

SMILES | cytotoxicity at 70.5 h [%]
CC(C(=O)Nc1ccc2ccccc2c1)N1CCC(n2ccnc2)CC1 (stereo not given) | -4.02
COc1ccc(Cl)cc1-c1cc(NC(=O)C2CNC(=O)N2)[nH]n1 (stereo not given) | 1.69
Cc1cnn(CC2CCCCN2C(=O)c2sccc2C#N)c1 (stereo not given) | -4.1
CCCc1noc(CNc2cc(C[S+](C)[O-])ccc2Cl)n1 (stereo not given) | -3.29
Cc1cccc(C2(O)CCN(C(=O)c3ccc(N(C)C)cc3)CC2)c1C | 9.92
CN(C)C(=O)C1CN(Cc2ccc(C#N)cc2)c2ccccc2O1 (stereo not given) | 4.19
CCOc1ccc(CN2C(=O)CC(C)(C(C)C)C2=O)nc1 (stereo not given) | 0.245
CC1CN(C)c2ccccc2CN1C(=O)NCc1ccon1 (stereo not given) | -0.0778
CS(=O)(=O)NCCCNCc1cc(F)ccc1Br | -2.01
Cc1noc(C)c1CNC(=O)N1Cc2ccccc2N(C)CC1C (stereo not given) | 7.21
Cc1cc(CN2CCCC(NS(C)(=O)=O)C2)ccc1-n1cncn1 (stereo not given) | 11.7
Cc1cc(N2CCCC(OC(=O)CCN3CCCC3=O)C2)nc(C)n1 (stereo not given) | -5.43
Clc1ccc(CNc2ccc(Cl)cn2)cc1 | -9.29
Cc1ccsc1CNC(=O)CSc1nnc[nH]1 | -11.1
Cc1cccnc1NC(=O)C1CCN(C(=O)C(C)C)CC1 | -19.2
CN1CCN(c2ccc(NC(=O)c3cccs3)c(C(F)(F)F)c2)CC1 | -9.41
Cc1noc(C)c1CCC(=O)N(C)C(C)c1cccs1 (stereo not given) | -11.3
COc1ccc(C(C)Nc2ncc(C(N)=O)cc2Cl)c(OC)c1 (stereo not given) | -4.47
CCn1ccc2cc(NC(=O)CC3CCCO3)ccc21 (stereo not given) | -6.31
Cc1nc(C2(NCc3c(C)nn(C)c3N3CCOCC3)CCC2)no1 | 10.7

SMILES | cytotoxicity at 70.5 h [%]
CCOCCN1CCN(CC(O)c2cc(Cl)ccc2Cl)CC1 (stereo not given) | -5.82
Cc1nn(C)cc1C(C)Nc1ncc(C(N)=O)cc1Cl (stereo not given) | -5.7
Cc1cc(CS(=O)(=O)NC2CCCCC2)on1 | -15.3
COc1ccc(Br)cc1CCC(=O)N1CCCC(O)C1 (stereo not given) | -5.19
COc1ccc(Br)cc1CCC(=O)N1CCSCC1 | 8.26
COc1ccc(Br)cc1CCC(=O)N1CCCC1 | -0.161
COc1cc(C)c(NC(=O)CCn2cccc2)cc1OC | -6.6
Cc1cccnc1C(NC(=O)CNC(=O)c1ccoc1C)C(C)C (stereo not given) | 3.13
CN(c1ccc(CNc2ccc(Cl)cn2)cc1)S(C)(=O)=O | -4.71
Cc1ccc(C(=O)N2CC(C(N)=O)O[C@H](C)C2)c(F)c1 (stereo not given in full) | -0.939
CCCS(=O)(=O)N1CCN(C(=O)CO)CC1 | -6.95
COc1cc(Cl)c(NC(=O)NCCn2cccc2)cc1OC | -4.58
O=C(CO)N1CCN(S(=O)(=O)CCCF)CC1 | 3.01
CCc1nn(C)c(CC)c1CNC(=O)Nc1cccc2c1CCN2C | -0.865
CN1CCN(c2ccc(NC(=O)c3ccoc3)c(C(F)(F)F)c2)CC1 | -7.05
COCCCC(=O)N(C)c1ccc(F)c(Cl)c1 | -8.74
Cc1ccc(C(=O)N2CC(C(N)=O)O[C@H](C)C2)c(C)c1 (stereo not given in full) | 1.19
CC(C)C(=O)NS(=O)(=O)c1ccc2c(c1)N(C)CCC2 | -8.04
COc1ccc(C2CCCN2C(=O)c2ccnc(NC3CC3)c2)cc1 (stereo not given) | 6.42
COc1c(CNC2(c3noc(C)n3)CCC2)c(C)nn1C | -7.32
